Measurements: the supplement of paper PMC7394473

Assays:
Conditions in all cases: 72 h
U2OS [1] = assay: GR50 (concentration giving GR = 0.5)
Method: (§1)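 U2OS cells treated with full dose titrations of drug; live and dead cells counted by STACK microscopy (mKate2 nuclei, SYTOX Green) at 72 h, biological triplicates. GR and FV dose responses were fitted with 4-parameter logistic models (GR lower bound -1). GRADE (0-100) is the rescaled angle of a linear fit of FV versus GR at doses with GR >= 0, giving the percentage of the response due to cell death.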

U2OS [2] = assay: fractional viability (live cells / total cells); higher = less cell death
Method: (§2)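 U2OS::Nuc-mKate2 cells seeded in 96-well plates and treated with eight- to ten-point half-log or log dilutions of drug in the presence of 50 nM SYTOX Green. Live (mKate2+) and dead (SYTOX+) cells were counted by IncuCyte STACK live-cell microscopy at 72 h; biological triplicates. GR is the normalised growth-rate inhibition value (Hafner 2016; 1 = untreated growth, <0 = population shrinking). FV is live/(live+dead) cells, not normalised.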

U2OS [3] = assay: FV IC50 (concentration giving fractional viability 0.5); higher = less potent killing
Method: as §1

U2OS [4] = assay: drug GRADE (percent of response due to cell death) (% (0-100)); higher = more death-driven response
Method: as §1

U2OS [5] = assay: normalized growth rate inhibition value (GR) relative to untreated cells (GR value (dimensionless, 1 = untreated growth)); higher = less growth inhibition
Method: as §2

U2OS [6] = assay: GRmin (fitted minimal GR value at highest effect) (GR value (dimensionless)); higher = less efficacious
Method: as §1

Row | SMILES | GR50 (U2OS [1]) [µM] | fractional viability (U2OS [2]; 0.01 µM) | fractional viability (U2OS [2]; 0.0316 µM) | fractional viability (U2OS [2]; 0.1 µM) | fractional viability (U2OS [2]; 0.316 µM) | fractional viability (U2OS [2]; 1 µM) | fractional viability (U2OS [2]; 3.16 µM) | fractional viability (U2OS [2]; 10 µM) | fractional viability (U2OS [2]; 31.6 µM) | FV IC50 (U2OS [3]) [µM] | drug GRADE (U2OS [4]) | normalized growth rate inhibition value (U2OS [5]; 0.01 µM) | normalized growth rate inhibition value (U2OS [5]; 0.0316 µM) | normalized growth rate inhibition value (U2OS [5]; 0.1 µM) | normalized growth rate inhibition value (U2OS [5]; 0.316 µM) | normalized growth rate inhibition value (U2OS [5]; 1 µM) | normalized growth rate inhibition value (U2OS [5]; 3.16 µM) | normalized growth rate inhibition value (U2OS [5]; 10 µM) | normalized growth rate inhibition value (U2OS [5]; 31.6 µM) | GRmin (U2OS [6]) | also measured
1 | Cc1cn(-c2cc(NC(=O)c3ccc(C)c(Nc4nccc(-c5cccnc5)n4)c3)cc(C(F)(F)F)c2)cn1 [Nilotinib] | 3.89 | 0.984 | 0.986 | 0.98 | 0.98 | 0.972 | 0.92 | 0.53 | 0.00617 | 10.3 | 27.4 | 1.07 | 1.11 | 0.977 | 0.928 | 0.955 | 0.585 | -0.184 | -0.875 | – | –
2 | Cc1cc2c(C(=O)NC[C@H](C)c3ccccc3)c(O)c(O)cc2c(O)c1-c1c(C)cc2c(C(=O)NC[C@H](C)c3ccccc3)c(O)c(O)cc2c1O [Sabutoclax] | 3.32 | 0.979 | 0.983 | 0.982 | 0.975 | 0.982 | 0.936 | 0.878 | 0.681 | – | 27.4 | 0.995 | 0.971 | 1.12 | 0.844 | 0.77 | 0.533 | 0.175 | -0.0541 | -0.234 | –
3 | CC[C@@H](C(=O)[C@@H](C)[C@@H](O)[C@H](C)[C@@H]1O[C@@H]([C@@H](CC)C(=O)O)CC[C@@H]1C)[C@H]1O[C@]2(C=C[C@@H](O)[C@]3(CC[C@@](C)([C@H]4CC[C@](O)(CC)[C@H](C)O4)O3)O2)[C@H](C)C[C@@H]1C [Salinomycin] | 2.41 | 0.982 | 0.975 | 0.977 | 0.955 | 0.899 | 0.725 | 0.722 | 0.322 | 17.5 | 59.9 | 1.07 | 0.992 | 0.814 | 0.77 | 0.63 | 0.405 | 0.316 | -0.253 | – | –
4 | CN1CCN(CCOc2cc(OC3CCOCC3)c3c(Nc4c(Cl)ccc5c4OCO5)ncnc3c2)CC1 [Saracatinib] | 2.59 | – | – | – | – | – | – | 0.833 | – | – | 28.7 | – | – | – | – | – | – | 0.205 | – | -0.134 | fractional viability (U2OS [2]; 0.00100578 µM): 0.989; fractional viability (U2OS [2]; 0.00317827 µM): 0.989; fractional viability (U2OS [2]; 0.0100433 µM): 0.987; fractional viability (U2OS [2]; 0.0317369 µM): 0.986; fractional viability (U2OS [2]; 0.100289 µM): 0.98; fractional viability (U2OS [2]; 0.316912 µM): 0.965; fractional viability (U2OS [2]; 1.00144 µM): 0.929; fractional viability (U2OS [2]; 3.16456 µM): 0.915; normalized growth rate inhibition value (U2OS [5]; 0.00100578 µM): 1.02; normalized growth rate inhibition value (U2OS [5]; 0.00317827 µM): 1.04; normalized growth rate inhibition value (U2OS [5]; 0.0100433 µM): 1; normalized growth rate inhibition value (U2OS [5]; 0.0317369 µM): 0.977; normalized growth rate inhibition value (U2OS [5]; 0.100289 µM): 0.978; normalized growth rate inhibition value (U2OS [5]; 0.316912 µM): 0.823; normalized growth rate inhibition value (U2OS [5]; 1.00144 µM): 0.608; normalized growth rate inhibition value (U2OS [5]; 3.16456 µM): 0.528
5 | O=C1NC(=O)[C@@H](c2cn3c4c(cccc24)CCC3)[C@@H]1c1c[nH]c2ccccc12 [Tivantinib] | 0.169 | – | – | – | – | – | – | 0.481 | – | – | 42.8 | – | – | – | – | – | – | -0.3 | – | -0.31 | fractional viability (U2OS [2]; 0.00100578 µM): 0.99; fractional viability (U2OS [2]; 0.00317827 µM): 0.991; fractional viability (U2OS [2]; 0.0100433 µM): 0.986; fractional viability (U2OS [2]; 0.0317369 µM): 0.988; fractional viability (U2OS [2]; 0.100289 µM): 0.975; fractional viability (U2OS [2]; 0.316912 µM): 0.844; fractional viability (U2OS [2]; 1.00144 µM): 0.613; fractional viability (U2OS [2]; 3.16456 µM): 0.683; normalized growth rate inhibition value (U2OS [5]; 0.00100578 µM): 0.95; normalized growth rate inhibition value (U2OS [5]; 0.00317827 µM): 1.03; normalized growth rate inhibition value (U2OS [5]; 0.0100433 µM): 0.977; normalized growth rate inhibition value (U2OS [5]; 0.0317369 µM): 0.86; normalized growth rate inhibition value (U2OS [5]; 0.100289 µM): 0.598; normalized growth rate inhibition value (U2OS [5]; 0.316912 µM): 0.299; normalized growth rate inhibition value (U2OS [5]; 1.00144 µM): 0.049; normalized growth rate inhibition value (U2OS [5]; 3.16456 µM): -0.107
6 | CCC(=O)N1CCN(c2ccc(-n3c(=O)ccc4cnc5ccc(-c6cnc7ccccc7c6)cc5c43)cc2C(F)(F)F)CC1 [Torin 1] | 0.473 | 0.977 | 0.976 | 0.966 | 0.954 | 0.937 | 0.917 | 0.895 | 0.792 | – | 21.4 | 1.02 | 0.896 | 0.749 | 0.525 | 0.404 | 0.275 | 0.147 | 0.114 | 0.106 | –
7 | CC[C@]1(O)C[C@H]2CN(CCc3c([nH]c4ccccc34)[C@@](C(=O)OC)(c3cc4c(cc3OC)N(C=O)[C@H]3[C@@](O)(C(=O)OC)[C@H](OC(C)=O)[C@]5(CC)C=CCN6CC[C@]43[C@@H]65)C2)C1 [Vincristine] | – | – | 0.426 | – | 0.472 | – | 0.427 | – | 0.415 | 0.0107 | 67.6 | – | 0.0808 | – | 0.0568 | – | -0.0172 | – | 0.0544 | 0.000271 | fractional viability (U2OS [2]; 0.00316 µM): 0.548; normalized growth rate inhibition value (U2OS [5]; 0.00316 µM): 0.251
8 | CC[C@@H]1C(=O)N(C)c2cnc(Nc3ccc(C(=O)N[C@H]4CC[C@H](N5CCN(CC6CC6)CC5)CC4)cc3OC)nc2N1C(C)C [Volasertib] | 0.0162 | – | – | – | – | 0.548 | – | – | – | – | 17.9 | – | – | – | – | -0.259 | – | – | – | -0.24 | fractional viability (U2OS [2]; 0.000100578 µM): 0.988; fractional viability (U2OS [2]; 0.000317827 µM): 0.986; fractional viability (U2OS [2]; 0.00100433 µM): 0.987; fractional viability (U2OS [2]; 0.00317369 µM): 0.986; fractional viability (U2OS [2]; 0.0100289 µM): 0.964; fractional viability (U2OS [2]; 0.0316912 µM): 0.86; fractional viability (U2OS [2]; 0.100144 µM): 0.725; fractional viability (U2OS [2]; 0.316456 µM): 0.563; normalized growth rate inhibition value (U2OS [5]; 0.000100578 µM): 0.973; normalized growth rate inhibition value (U2OS [5]; 0.000317827 µM): 1.07; normalized growth rate inhibition value (U2OS [5]; 0.00100433 µM): 1.1; normalized growth rate inhibition value (U2OS [5]; 0.00317369 µM): 1; normalized growth rate inhibition value (U2OS [5]; 0.0100289 µM): 0.717; normalized growth rate inhibition value (U2OS [5]; 0.0316912 µM): 0.122; normalized growth rate inhibition value (U2OS [5]; 0.100144 µM): -0.136; normalized growth rate inhibition value (U2OS [5]; 0.316456 µM): -0.25
